# Tests used:
# Test in all cases: Enzymatic reaction rate with glycerol (MBTH assay)
# Assay type in all cases: biochemical
# [1] = test system: Klebsiella pneumoniae fused glycerol dehydratase fGDHt variant L113W(β); conditions: substrate glycerol, MBTH assay 5 minutes, deoxygenated 35 mM phosphate buffer (pH 8.0), 2 µM coenzyme B12
# Procedure: (§1) The activities of the wild-type and variant enzymes were measured at 25°C using 3-methyl-2-benzothiazolinone hydrazone (MBTH). To eliminate oxygen inactivation, the enzymes were incubated for 5 minutes in 35 mM phosphate buffer (pH 8.0) stirred with a negative pressure pump. The reaction was initiated by the addition of glycerol. The absorbance measured at 670 nm of the variant was compared with that of the wild-type fGDHt to determine the relative substrate activity (FIG. 10). The MBTH assay was performed as follows:
# (§2) The reaction was then initiated by adding glycerol, the substrate to the assay mixture. The reaction was performed for 5 minutes and the reaction was terminated by adding 12 mg/mL MBTH and 0.1 M potassium citrate buffer (pH 3.6). Five minutes after the reaction was terminated, FeCl3 was added thereto and the reaction was performed for 15 minutes. The absorbance was measured at 670 nm.
# (§3) Km and Kcat were calculated using the following Equation (Michaelis-Menten equation): v = (d[P])/(dt) = Vmax ([S])/(KM + [S]) = kcat [E]0 ([S])/(KM + [S]) [formula]
# (§4) wherein Km is the Michaelis constant and Kcat is the enzyme turnover number.
# [2] = test system: Klebsiella pneumoniae fused glycerol dehydratase fGDHt variant A177M/M158W(α/β); conditions: substrate glycerol
# Procedure: as §1, §2, §3, §4
# [3] = test system: Klebsiella pneumoniae fused glycerol dehydratase fGDHt variant A177M/L113W(α/β); conditions: substrate glycerol, MBTH assay 5 minutes, deoxygenated 35 mM phosphate buffer (pH 8.0), 2 µM coenzyme B12
# Procedure: as §1, §2, §3, §4
# [4] = test system: Klebsiella pneumoniae fused glycerol dehydratase fGDHt variant A177M(α); conditions: substrate glycerol, MBTH assay 5 minutes, deoxygenated 35 mM phosphate buffer (pH 8.0), 2 µM coenzyme B12
# Procedure: as §1, §2, §3, §4
# [5] = test system: Klebsiella pneumoniae fused glycerol dehydratase fGDHt variant M158W(β); conditions: substrate glycerol, MBTH assay 5 minutes, deoxygenated 35 mM phosphate buffer (pH 8.0), 2 µM coenzyme B12
# Procedure: as §1, §2, §3, §4
# [6] = test system: Klebsiella pneumoniae fused glycerol dehydratase fGDHt variant L113F(β); conditions: substrate glycerol
# Procedure: as §1, §2, §3, §4
# [7] = test system: Klebsiella pneumoniae glycerol dehydratase, fGDHt (alpha-beta fused subunit, stop codon TAA changed to glutamine CAA), SEQ ID NO: 4; conditions: substrate glycerol, MBTH assay 5 minutes, deoxygenated 35 mM phosphate buffer (pH 8.0), 2 µM coenzyme B12
# Procedure: as §1, §2, §3, §4
# [8] = test system: Klebsiella pneumoniae fused glycerol dehydratase fGDHt variant A177M/L113W/M158W(α/β/β); conditions: substrate glycerol, MBTH assay 5 minutes, deoxygenated 35 mM phosphate buffer (pH 8.0), 2 µM coenzyme B12
# Procedure: as §1, §2, §3, §4
# [9] = FGDHt(A177M/M158W(α/β)), MBTH assay 5 minutes, deoxygenated 35 mM phosphate buffer (pH 8.0), 2 µM coenzyme B12
# [10] = fGDHt (L113F(β)), MBTH assay 5 minutes, deoxygenated 35 mM phosphate buffer (pH 8.0), 2 µM coenzyme B12
structure (smiles),measurement,setting,value
OCC(O)CO [glycerol],Kcat,[1],31.82 ± 10.99 s⁻¹
same,Km,[1],520 ± 170 µM
same,kcat/Km higher than those of fGDHt,[2]; A177M/M158W (α/β) compared with fGDHt,8%
same,Kcat,[2]; [9],155.47 ± 13.23 s⁻¹
same,Km,[2]; [9],150 ± 40 µM
same,Kcat,[3],31.96 ± 9.42 s⁻¹
same,Kcat,[4],107.48 ± 14.91 s⁻¹
same,Km,[4],360 ± 70 µM
same,Km,[5],340 ± 50 µM
same,kcat/Km higher than those of fGDHt,[6]; L113F (β) compared with fGDHt,6%
same,Kcat,[6]; [10],208.62 ± 21.8 s⁻¹
same,Km,[6]; [10],240 ± 60 µM
same,Kcat,[7],230.28 ± 10.63 s⁻¹
same,Km,[7],270 ± 30 µM
same,Kcat,[8],28.93 ± 2.17 s⁻¹
same,Km,[8],140 ± 40 µM
